Data published in US6780398B1, “Aqueous nasal formulation” (Glaxo Smithkline Kabushiki Kaisha, priority 1999, dated 2004).

Test system: Ps. cepacia
Assay: Challenge test of BANS against Ps. cepacia (preservative effectiveness)
Type: cell-based, Pseudomonas cepacia (now known as Burkhoderia cepacia)
Details: phenylethylalcohol together with benzalkonium chloride in the formulation; FIG. 7
From the text: 4) Challenge Test of BANS Against Ps. Cepacia
Formulations corresponding to BANS and the same formulation containing only 0.02% (w/w) benzalkonium chloride as preservative (i.e. no phenylethyl alcohol) and the same formulation containing only 0.275% (v/w) phenylethylalcohol as preservative (i.e. no benzalkonium chloride) were challenged with an innoculum of Ps cepacia.

OCCc1ccccc1 [phenylethylalcohol, Phenylethyl alcohol]
preservative properties by killing Pseudomonas cepacia: synergistic effect with benzalkonium chloride
